{"source": "patent US20170035914A1", "about": "“FUNCTIONALIZED PEPTIDE TRANSPORTERS FOR CELLULAR UPTAKE” (General Electric Company, priority 2015, published 2017)", "key": {"live cells": {"system": "live cells", "experiment": "Live-cell fluorescence microscopy of cell uptake and nuclear labeling, cell type not given (FIG. 4, 6, 7, 9)", "assay_type": "cell-based", "description": "A CPP-cargo construct (comprising a cell-penetrating moiety and a nuclear targeting moiety) was synthesized and conjugated via reactive 3-nitro-2-pyridinesulfenyl cysteine residues, and then purified by HPLC. When exogenously supplemented into cell staining media, these peptide fusions are designed to penetrate living cells and cleave into two subunits within the reducing environment of cell cytoplasm, thereby releasing a FITC-NLS peptide that is actively trafficked into the cell nucleus."}, "CHO cells": {"system": "CHO cells", "experiment": "Live-cell fluorescence microscopy of cell uptake and nuclear labeling by CPP-NLS-FAM fusion peptides", "assay_type": "cell-based", "conditions": "mammalian CHO cells, compared with other tested cell-penetrating sequences, FIG. 4", "description": "(§1) A CPP-cargo construct (comprising a cell-penetrating moiety and a nuclear targeting moiety) was synthesized and conjugated via reactive 3-nitro-2-pyridinesulfenyl cysteine residues, and then purified by HPLC. When exogenously supplemented into cell staining media, these peptide fusions are designed to penetrate living cells and cleave into two subunits within the reducing environment of cell cytoplasm, thereby releasing a FITC-NLS peptide that is actively trafficked into the cell nucleus. Thus, the fusion peptide is convenient for discriminating nuclei by live-cell microscopy.\n(§2) Live human MRC5 cells and mammalian CHO cells were incubated with fusion proteins as depicted in the flow chart in FIG. 3, steps 1 through 9. […] The FITC-NLS/pVEC fusion was constructed by independently synthesizing a FITC-NLS-Npys peptide and a modified pVEC sequence containing a terminal cysteine residue: […]"}, "MRC5 cells": {"system": "MRC5 cells", "experiment": "Live-cell fluorescence microscopy of cell uptake and nuclear labeling by CPP-NLS-FAM fusion peptides", "assay_type": "cell-based, human", "description": "as §1, §2"}, "[1]": {"conditions": "in the presence of excess monovalent pVEC (~132-156 μg/well), FIG. 7"}}, "note": "Primed or numbered codes have the meaning given here. 5‑FAM = 5-FAM fluorescein label; Npys′ = not defined here"}
{"substance": "5-FAM-GGPKKKRKVGGCCGGKSHAHAQKRIRRRLIILL (not fully specified; 5-FAM; disulfide-linked) [FAM-NLS-C-C-pVEC, disulfide-linked fusion of Fluorescein-NLS-Npys peptide and modified pVEC peptide]", "values": [{"measurement": "cell uptake and nuclear targeting", "setting": "live cells; [1]", "value": "enhanced"}, {"measurement": "reduction in fusion peptide needed for equal or better cell uptake and nuclear labeling", "setting": "live cells; [1]", "value": "at least 8 fold"}, {"measurement": "delivery of the NLS-FAM cargo moiety into cells", "setting": "live cells; various cell types, FIG. 4 legend", "value": "high efficiency"}, {"measurement": "cell-uptake efficiency and nuclear labeling", "setting": "CHO cells", "value": "highest"}, {"measurement": "cell-uptake efficiency and nuclear labeling", "setting": "MRC5 cells; live human MRC5 cells, compared with other tested cell-penetrating sequences, FIG. 4", "value": "highest"}, {"measurement": "effect of monovalent pVEC on cellular uptake", "setting": "MRC5 cells; monovalent pVEC ~44 μg/well, MRC5 cells, FIG. 8", "value": "enhanced"}]}
{"substance": "5-FAM-GGPKKKRKVGGC(N-Pys)-OH ({5‑FAM}-GGPKKKRKVGGC(Npys′)-OH) [FITC-NLS-Npys]", "values": [{"measurement": "effect of monovalent pVEC on cell uptake", "setting": "live cells; higher amounts of monovalent pVEC (~132 μg/well), FIG. 9", "value": "enhanced cell uptake"}]}
